Reference: PMC4506051, “Pharmacokinetic Profiles of Active Ingredients and Its Metabolites Derived from Rikkunshito, a Ghrelin Enhancer, in Healthy Japanese Volunteers: A Cross-Over, Randomized Study” (PLoS ONE, 2015)

Columns and labels:
[1] = Method validation: long-term stability in plasma
[2] = Method validation: post-preparative stability (autosampler)
[3] = Randomized crossover quantitative trial: plasma pharmacokinetics of nine ingredients after rikkunshito 2.5, 5.0 or 7.5 g; details: for AUC(0-t): AUC0-last; for Cmax: C max; for Tmax: Median t max (range); for Tmax / Median t max (range): median (minimum–maximum)
From the text: The first trial was a nonrandomized, open-label, one-period design. The second trial was a randomized, open-label, three-arm, three-period design (Fig 1). With respect to inclusion criteria, the studies included healthy Japanese adults between 20 and 45 years of age with a body mass index between 18 and 25 who were willing and able to comply with the study requirements. Exclusion criteria for this study included a history of significant liver, heart, or vessel disease and consumption of supplements that contained any rikkunshito ingredients or any drug within 3 days to 1 week before the first dose. Other standard exclusion criteria included relevant allergies, pregnant or nursing females, and any alcohol or nicotine use. The sample size was set as more than 15 based on the Ministry of Health, Labour and Welfare’s guidelines. Subjects allocated to a screening test were randomized to one of three groups by the central allocation system (allocation ratio 1:1:1). A random sequence was generated using a computer. The safety endpoint was evaluated in all volunteers. This endpoint was defined on the basis of a physician’s judgement after examination or observation that a serious adverse event had occurred. Adverse events included death, a life-threatening event, an event requiring hospitalization for treatment or an extended stay in hospital, an event resulting in permanent or temporary disability or dysfunction, an event resulting in a congenital abnormality, or any other serious medical phenomenon. With respect to side effects, no specific conditions were defined, and all adverse events for which no causal relationship with the drug could be excluded were deemed to be side effects. In each stage during the 48-h period following rikkunshito administration, the physician monitored the patient for subjective symptoms, objective findings, swelling, body temperature (axillary), blood pressure (sitting), and pulse (sitting). The physician also conducted a hematological examination to measure the patient’s red blood cell, leucocyte and platelet counts, hemoglobin level, and hematocrit value. A biochemical examination was conducted to determine total protein, blood urea nitrogen, creatinine, uric acid, aspartate aminotransferase, alanine aminotransferase, total bilirubin, alkaline phosphatase, γ-glutamyltranspeptidase albumin, prothrombin time, total cholesterol, C-reactive protein, and potassium to identify any abnormalities in comparison with the subject’s condition prior to administration. All participants fasted for 12 h before administration and 4 h after administration of the study drug.
In the second quantitative trial, 12-mL blood samples were collected at 0 (preadministration), 0.25, 0.5, 1, 2, 3, 4, 6, 8, 10, 12, 24, and 48 h after a single oral administration of rikkunshito (Lot H05142). A total of 3 daily doses were used in this trial, i.e., the clinical dose per administration (2.5 g) as the lowest dose, the clinical daily dose (7.5 g) as the highest dose, and an intermediate dose (5.0 g), to broadly discuss the pharmacokinetic characteristics of the ingredients measured. The trial participants were hospitalized overnight on the day they ingested rikkunshito, and returned home the following day after blood samples were collected at the 24-h time point. The participants returned to the hospital to provide blood samples at 48 h. The blood was immediately centrifuged at 1700 ×g for 15 min to obtain plasma. Plasma fractions were stored at −20°C or lower until analysis.
Plasma, urine, and rikkunshito formulation samples were analyzed for rikkunshito ingredients concentrations using a liquid chromatography–mass spectrometry with tandem mass spectrometer assay (LC–MS/MS; API5000, Triple Quad 6500, or QTRAP5500; AB Sciex, Tokyo, Japan) or gas chromatography–mass spectrometry. Further information of analytical methods can be found at S1 Appendix.

[4] = Method validation: stability in standard, stock and working solution; details: for Stock solution stability, RR: 0.1 mg/mL
[5] = Method validation: stability in blood
[6] = Stability of ingredients in gastric pH solution (pH 1.2, 37°C); assay type: physicochemical; details: pH 1.2
Procedure: Rikkunshito gradually dissolved in acidic solution (pH 1.2) at 37°C, and the concentration of atractylodin after adding 0.25, 0.5, 1, and 2 h was measured by gas chromatography–mass spectrometry.

[7] = Method validation: freeze-thaw stability in plasma; details: deep freezer (−30°C to −10°C), after 3 cycles of freeze-thaw
[8] = Dose proportionality (linearity) test by power model for C max and AUC0-last; details: rikkunshito 2.5, 5.0 or 7.5 g
Procedure: The dose proportionality was analyzed via a power model [21, 22]. […] Evaluation of linearity of the dosage-exposure relationship was conducted with Phoenix WinNonlin and SAS 9.2 (SAS Institute, Inc., Cary, NC).

[9] = Method validation: short-term stability in plasma
[10] = human, plasma, po, 2.5 g, rikkunshito 2.5 g single oral, n = 21, geometric mean (95% CI)
[11] = human, plasma, po, 5 g, rikkunshito 5.0 g single oral, n = 19, geometric mean (95% CI)
[12] = human, plasma, po, 7.5 g, rikkunshito 7.5 g single oral, n = 19, geometric mean (95% CI)
[13] = rikkunshito 7.5 g single oral, n = 19, geometric mean (95% CI)

With `O=C(/C=C/c1ccc(O)cc1)c1ccc(O)cc1O` [Isoliquiritigenin] the “Long-term stability, RR” value ([1]; 4 pg/mL, freezer (−30°C to −10°C) for 22 days) was 99.0%, the “Long-term stability, RR” value ([1]; 4 pg/mL, freezer (−30°C to −10°C) for 31 days) was 105.0% and the “Long-term stability, RR” value ([1]; 4 pg/mL, freezer (−30°C to −10°C) for 220 days) was 102.8%. For the same compound, the “Long-term stability, RR” value ([1]; 160 pg/mL, freezer (−30°C to −10°C) for 22 days) was 95.0%, the “Long-term stability, RR” value ([1]; 160 pg/mL, freezer (−30°C to −10°C) for 31 days) was 87.7% and the “Long-term stability, RR” value ([1]; 160 pg/mL, freezer (−30°C to −10°C) for 220 days) was 85.5%. For the same compound, the “Post-preparative stability, RR” value ([2]; 4 pg/mL, autosampler set at 4°C for 25 h) was 110.0%, the “Post-preparative stability, RR” value ([2]; 4 pg/mL, autosampler set at 4°C for 48 h) was 88.0% and the “Post-preparative stability, RR” value ([2]; 160 pg/mL, autosampler set at 4°C for 25 h) was 115.2%. The “Post-preparative stability, RR” value ([2]; 160 pg/mL, autosampler set at 4°C for 48 h) was 93.8%, the AUC(0-t) [3, 10] was 0.0307 ng·h/mL and the Cmax [3, 10] was 0.0205 ng/mL. For the same compound, the Tmax ([3]; human, plasma, po, 2.5 g, rikkunshito 2.5 g single oral, n = 21) was 15 min, the AUC(0-t) [3, 11] was 0.0766 ng·h/mL and the Cmax [3, 11] was 0.0321 ng/mL. The Tmax ([3]; human, plasma, po, 5 g, rikkunshito 5.0 g single oral, n = 19) was 15 min, the half-life ([3]; human, plasma, po, 5 g, t 1/2, rikkunshito 5.0 g single oral, n = 19, geometric mean (95% CI)) was 247 min and the AUC(0-t) [3, 12] was 0.122 ng·h/mL. For the same compound, the Cmax [3, 12] was roughly 0.0428 ng/mL, the C max [3, 13] was 42.8 (30.4–60.3) pg/mL and the “t 1/2” value [3, 13] was 3.26 (1.69–6.31) h. For the same compound, the “t 1/2” value ([3]; rikkunshito 7.5 g single oral, n = 19, geometric mean (95% CI), listed as isoliquiritigenin) was less than 10 h, the “Median t max (range)” value ([3]; rikkunshito 7.5 g single oral, n = 19) was 0.250 (0.250–4.00) h and the “Median t max (range)” value ([3]; rikkunshito 7.5 g single oral, n = 19, listed as isoliquiritigenin) was no more than 1 h. For the same compound, the “Working solution stability, RR” value ([4]; 0.02 ng/mL, refrigerator (1°C to 8°C) for 53 days) was 89.9%, the “Working solution stability, RR” value ([4]; 0.02 ng/mL, refrigerator (1°C to 8°C) for 128 days) was 108.2% and the “Working solution stability, RR” value ([4]; 2 ng/mL, refrigerator (1°C to 8°C) for 53 days) was 92.7%. The “Working solution stability, RR” value ([4]; 2 ng/mL, refrigerator (1°C to 8°C) for 128 days) was 102.2%, the “Stock solution stability, RR” value ([4]; refrigerator (1°C to 8°C) for 54 days) was 54 days: 96.9% and the “Stock solution stability, RR” value ([4]; refrigerator (1°C to 8°C) for 129 days) was 129 days: 96.9%. The “Stability in blood, RR” value ([5]; 4 pg/mL, at room temperature for 2 h) was 81.0%, the “Stability in blood, RR” value ([5]; 4 pg/mL, on ice for 2 h) was 103.0% and the “Stability in blood, RR” value ([5]; 160 pg/mL, at room temperature for 2 h) was 46.8%. For the same compound, the “Stability in blood, RR” value ([5]; 160 pg/mL, on ice for 2 h) was 90.2%, the “Stability in gastric pH solution, Quantitative value” (shortened to “Stability in gastric pH solution”) ([6]; 0.5 h) was 15.2 ng/mL and the “Stability in gastric pH solution” value ([6]; 1 h) was 15.5 ng/mL. The “Stability in gastric pH solution” value ([6]; 2 h) was 15.2 ng/mL, the “Freeze-thaw stability, RR” value ([7]; 4 pg/mL) was 95.3% and the “Freeze-thaw stability, RR” value ([7]; 160 pg/mL) was 88.3%. The “Dose proportionality test using power model, β” value ([8]; AUC0-last) was 1.27, the “Dose proportionality test using power model, β” value ([8]; Cmax) was 0.692 and the “Short-term stability, RR” value ([9]; 4 pg/mL, at room temperature for 4 h) was 97.0%. For the same compound, the “Short-term stability, RR” value ([9]; 4 pg/mL, at room temperature for 24 h) was 96.5%, the “Short-term stability, RR” value ([9]; 160 pg/mL, at room temperature for 4 h) was 85.2% and the “Short-term stability, RR” value ([9]; 160 pg/mL, at room temperature for 24 h) was 101.2%.
